Source: patent EP0217101A1, “Substituted diphenyl ethers, process for their preparation and their use as herbicides” (HOECHST AKTIENGESELLSCHAFT, priority 1985, dated 1987)

Experiments:
Assay type in all cases: in vivo
Stellaria media [1] = assay: Weed control pre-emergence (greenhouse pot test); parameters: key: 0: = ohne Wirkung bzw. Schaden; 1: = 0 - 20 % Wirkung bzw. Schaden; = 20 - 40 % Wirkung bzw. Schaden; 3: = 40 - 60 % Wirkung bzw. Schaden; 4: = 60 - 80 % Wirkung bzw. Schaden; 5: = 80 - 100 % Wirkung bzw. Schaden; conditions: pre-emergence, 2,5 kg a.i./ha, visual rating after 3-4 weeks
Text: (§1) Die Schädigung der Unkrautpflanzen bzw. die Kulturpflanzenverträglichkeit wurde gemäß einem Schlüssel bonitiert, in dem die Wirksamkeit durch Wertzahlen von 0 - 5 ausgedrückt ist. Dabei bedeutet:
(§2) Samen bzw. Rhizomstücke von mono- und dikotylen Unkrautpflanzen wurden in Plasstiktöpfen (0 = 9 cm) in sandiger Lehmerde ausgelegt und mit Erde abgedeckt. Die in Form von benetzbaren Pulvern oder Emulsionskonzentraten formulierten erfindungsgemäßen Verbindungen wurden dann als wäßrige Suspensionen bzw. Emulsionen mit einer Wasseraufwandmenge von umgerechnet 600-800 1/ha in unterschiedlichen Dosierungen auf die Oberfläche der Abdeckerde appliziert. Nach der Behandlung wurden die Töpfe im Gewächshaus aufgestellt und unter guten Wachstumsbedingungen für die Unkrautpflanzen gehalten (Temperatur 23 plus/minus 1 Grad Celsius, relative Luftfeuchte 60-80 %).
(§3) Die optische Bonitur der Pflanzen- bzw. Auflaufschäden erfolgte nach dem Auflaufen der Versuchspflanzen nach einer Versuchszeit von 3-4 Wochen im Vergleich zu unbehandelten Kontrollen.

Echinochloa crus-galli [2] = assay: Weed control pre-emergence (greenhouse pot test); parameters: key: 0: = ohne Wirkung bzw. Schaden; 1: = 0 - 20 % Wirkung bzw. Schaden; = 20 - 40 % Wirkung bzw. Schaden; 3: = 40 - 60 % Wirkung bzw. Schaden; 4: = 60 - 80 % Wirkung bzw. Schaden; 5: = 80 - 100 % Wirkung bzw. Schaden; conditions: pre-emergence, 2,5 kg a.i./ha, visual rating after 3-4 weeks
Text: as §1, §2, §3

Chrysanthemum segetum [3] = assay: Weed control pre-emergence (greenhouse pot test); conditions: pre-emergence, 2,5 kg a.i./ha, visual rating after 3-4 weeks
Text: as §1, §2, §3

Avena sativa [4] = assay: Weed control pre-emergence (greenhouse pot test); conditions: pre-emergence, 2,5 kg a.i./ha, visual rating after 3-4 weeks
Text: as §1, §2, §3

Sinapis arvensis [5] = assay: Weed control pre-emergence (greenhouse pot test); conditions: pre-emergence, 2,5 kg a.i./ha, visual rating after 3-4 weeks
Text: as §1, §2, §3

Stellaria media [6] = assay: Weed control post-emergence (greenhouse pot test); parameters: key: 0: = ohne Wirkung bzw. Schaden; 1: = 0 - 20 % Wirkung bzw. Schaden; = 20 - 40 % Wirkung bzw. Schaden; 3: = 40 - 60 % Wirkung bzw. Schaden; 4: = 60 - 80 % Wirkung bzw. Schaden; 5: = 80 - 100 % Wirkung bzw. Schaden; conditions: post-emergence (three-leaf stage), 2,5 kg a.i./ha, visual rating after ca. 3-4 weeks
Text: as §1
(§4) Samen bzw. Rhizomstüeke von mono- und dikotylen Unkräutern wurden in Plasstiktöpfen (φ= 9 cm) in sandigem Lehmboden ausgelegt, mit Erde abgedeckt und im Gewächshaus unter guten Wachstumsbedingungen angezogen. Drei Wochen nach der Aussaat wurden die Versuchspflanzen im Dreiblattstadium behandelt. Die als Spritzpulver bzw. als Eτulsionskonzentrate formulierten erfindungsgemäßen Verbindungen wurden in verschiedenen Dosierungen mit einer Wasseraufwandmenge von umgerechnet 600-800 l/ha auf die grünen Pflanzenteile gesprüht und nach ca. 3-4 Wochen Standzeit der Versuchspflanzen im Gewächshaus unter optimalen Wachstumsbedingungen (Temperatur 23°C +/- 1°C, relative Luftfeuchte 60-80 %) die Wirkung der Präparate optisch im Vergleich zu unbehandelten Kontrollen bonitiert.

Echinochloa crus-galli [7] = assay: Weed control post-emergence (greenhouse pot test); parameters: key: 0: = ohne Wirkung bzw. Schaden; 1: = 0 - 20 % Wirkung bzw. Schaden; = 20 - 40 % Wirkung bzw. Schaden; 3: = 40 - 60 % Wirkung bzw. Schaden; 4: = 60 - 80 % Wirkung bzw. Schaden; 5: = 80 - 100 % Wirkung bzw. Schaden; conditions: post-emergence (three-leaf stage), 2,5 kg a.i./ha, visual rating after ca. 3-4 weeks
Text: as §1, §4

Chrysanthemum segetum [8] = assay: Weed control post-emergence (greenhouse pot test); conditions: post-emergence (three-leaf stage), 2,5 kg a.i./ha, visual rating after ca. 3-4 weeks
Text: as §1, §4

Avena sativa [9] = assay: Weed control post-emergence (greenhouse pot test); conditions: post-emergence (three-leaf stage), 2,5 kg a.i./ha, visual rating after ca. 3-4 weeks
Text: as §1, §4

Sinapis arvensis [10] = assay: Weed control post-emergence (greenhouse pot test); conditions: post-emergence (three-leaf stage), 2,5 kg a.i./ha, visual rating after ca. 3-4 weeks
Text: as §1, §4

| SMILES | Herbizide Wirkung im Vorauflauf STM (Stellaria media [1]) | Herbizide Wirkung im Vorauflauf ECG (Echinochloa crus-galli [2]) | Herbizide Wirkung im Vorauflauf CRS (Chrysanthemum segetum [3]) | Herbizide Wirkung im Vorauflauf AS (Avena sativa [4]) | Herbizide Wirkung im Vorauflauf SIA (Sinapis arvensis [5]) | Herbizide Wirkung im Nachauflauf STM (Stellaria media [6]) | Herbizide Wirkung im Nachauflauf ECG (Echinochloa crus-galli [7]) | Herbizide Wirkung im Nachauflauf CRS (Chrysanthemum segetum [8]) | Herbizide Wirkung im Nachauflauf AS (Avena sativa [9]) | Herbizide Wirkung im Nachauflauf SIA (Sinapis arvensis [10]) |
| --- | --- | --- | --- | --- | --- | --- | --- | --- | --- | --- |
| CCOC(OC(=O)c1cc(Oc2ccc(C(F)(F)F)cc2Cl)ccc1[N+](=O)[O-])C(Cl)(Cl)Cl (centres unmarked) [compound 5, 5-(2-Chlor-4-trifluormethylahenoxy)-2-nitrobenzoesäure-2,2,2-trichlor-1-ethoxyethylester] | 2 (= 20 - 40 % Wirkung bzw. Schaden) | 3 (= 40 - 60 % Wirkung bzw. Schaden) | 5 (= 80 - 100 % Wirkung bzw. Schaden) | 2 (= 20 - 40 % Wirkung bzw. Schaden) | 5 (= 80 - 100 % Wirkung bzw. Schaden) | 2 (= 20 - 40 % Wirkung bzw. Schaden) | 2 (= 20 - 40 % Wirkung bzw. Schaden) | 4 (= 60 - 80 % Wirkung bzw. Schaden) | 1 (= 0 - 20 % Wirkung bzw. Schaden) | 5 (= 80 - 100 % Wirkung bzw. Schaden) |
| CC1(C)OCC(COC(OC(=O)c2cc(Oc3ccc(C(F)(F)F)cc3Cl)ccc2[N+](=O)[O-])C(Cl)(Cl)Cl)O1 (centres unmarked) [compound 6, 5-(2-Chlor-4-trifluormethylphenoxy)-2-nitrobenzoesäure-1-(2,2-dimethyl-1,3-dioxolan-4-yl)-methoxy-2,2,2-trichlorethylester] | 0 | 0 | 3 (= 40 - 60 % Wirkung bzw. Schaden) | 1 (= 0 - 20 % Wirkung bzw. Schaden) | 2 (= 20 - 40 % Wirkung bzw. Schaden) | 3 (= 40 - 60 % Wirkung bzw. Schaden) | 0 | 4 (= 60 - 80 % Wirkung bzw. Schaden) | 1 (= 0 - 20 % Wirkung bzw. Schaden) | 4 (= 60 - 80 % Wirkung bzw. Schaden) |
| O=C(OC(OCC(F)(F)C(F)F)C(Cl)(Cl)Cl)c1cc(Oc2ccc(C(F)(F)F)cc2Cl)ccc1[N+](=O)[O-] (centres unmarked) [compound 7] | 2 (= 20 - 40 % Wirkung bzw. Schaden) | 5 (= 80 - 100 % Wirkung bzw. Schaden) | 5 (= 80 - 100 % Wirkung bzw. Schaden) | 3 (= 40 - 60 % Wirkung bzw. Schaden) | 3 (= 40 - 60 % Wirkung bzw. Schaden) | 5 (= 80 - 100 % Wirkung bzw. Schaden) | 3 (= 40 - 60 % Wirkung bzw. Schaden) | 5 (= 80 - 100 % Wirkung bzw. Schaden) | 2 (= 20 - 40 % Wirkung bzw. Schaden) | 5 (= 80 - 100 % Wirkung bzw. Schaden) |
| N#CCCSCCOC(OC(=O)c1cc(Oc2ccc(C(F)(F)F)cc2Cl)ccc1[N+](=O)[O-])C(Cl)(Cl)Cl (centres unmarked) [compound 9] | 3 (= 40 - 60 % Wirkung bzw. Schaden) | 4 (= 60 - 80 % Wirkung bzw. Schaden) | 5 (= 80 - 100 % Wirkung bzw. Schaden) | 4 (= 60 - 80 % Wirkung bzw. Schaden) | 4 (= 60 - 80 % Wirkung bzw. Schaden) | 0 | 2 (= 20 - 40 % Wirkung bzw. Schaden) | 4 (= 60 - 80 % Wirkung bzw. Schaden) | 1 (= 0 - 20 % Wirkung bzw. Schaden) | 5 (= 80 - 100 % Wirkung bzw. Schaden) |
| CCOC(=O)COC(OC(=O)c1cc(Oc2ccc(C(F)(F)F)cc2Cl)ccc1[N+](=O)[O-])C(Cl)(Cl)Cl (centres unmarked) [compound 22] | 2 (= 20 - 40 % Wirkung bzw. Schaden) | 5 (= 80 - 100 % Wirkung bzw. Schaden) | 5 (= 80 - 100 % Wirkung bzw. Schaden) | 4 (= 60 - 80 % Wirkung bzw. Schaden) | 5 (= 80 - 100 % Wirkung bzw. Schaden) | 3 (= 40 - 60 % Wirkung bzw. Schaden) | 5 (= 80 - 100 % Wirkung bzw. Schaden) | 5 (= 80 - 100 % Wirkung bzw. Schaden) | 5 (= 80 - 100 % Wirkung bzw. Schaden) | 5 (= 80 - 100 % Wirkung bzw. Schaden) |
| CCOC(=O)C(C)OC(OC(=O)c1cc(Oc2ccc(C(F)(F)F)cc2Cl)ccc1[N+](=O)[O-])C(Cl)(Cl)Cl (centres unmarked) [compound 23] | 5 (= 80 - 100 % Wirkung bzw. Schaden) | 5 (= 80 - 100 % Wirkung bzw. Schaden) | 5 (= 80 - 100 % Wirkung bzw. Schaden) | 5 (= 80 - 100 % Wirkung bzw. Schaden) | 5 (= 80 - 100 % Wirkung bzw. Schaden) | 5 (= 80 - 100 % Wirkung bzw. Schaden) | 2 (= 20 - 40 % Wirkung bzw. Schaden) | 5 (= 80 - 100 % Wirkung bzw. Schaden) | 1 (= 0 - 20 % Wirkung bzw. Schaden) | 5 (= 80 - 100 % Wirkung bzw. Schaden) |
| CCOC(=O)C(C)(C)OC(OC(=O)c1cc(Oc2ccc(C(F)(F)F)cc2Cl)ccc1[N+](=O)[O-])C(Cl)(Cl)Cl (centres unmarked) [compound 30] | 2 (= 20 - 40 % Wirkung bzw. Schaden) | 5 (= 80 - 100 % Wirkung bzw. Schaden) | 5 (= 80 - 100 % Wirkung bzw. Schaden) | 5 (= 80 - 100 % Wirkung bzw. Schaden) | 5 (= 80 - 100 % Wirkung bzw. Schaden) | 5 (= 80 - 100 % Wirkung bzw. Schaden) | 4 (= 60 - 80 % Wirkung bzw. Schaden) | 5 (= 80 - 100 % Wirkung bzw. Schaden) | 5 (= 80 - 100 % Wirkung bzw. Schaden) | 5 (= 80 - 100 % Wirkung bzw. Schaden) |
| COC(=O)CC(OC(OC(=O)c1cc(Oc2ccc(C(F)(F)F)cc2Cl)ccc1[N+](=O)[O-])C(Cl)(Cl)Cl)C(=O)OC (centres unmarked) [compound 31] | 2 (= 20 - 40 % Wirkung bzw. Schaden) | 5 (= 80 - 100 % Wirkung bzw. Schaden) | 5 (= 80 - 100 % Wirkung bzw. Schaden) | 5 (= 80 - 100 % Wirkung bzw. Schaden) | 5 (= 80 - 100 % Wirkung bzw. Schaden) | 5 (= 80 - 100 % Wirkung bzw. Schaden) | 3 (= 40 - 60 % Wirkung bzw. Schaden) | 5 (= 80 - 100 % Wirkung bzw. Schaden) | 4 (= 60 - 80 % Wirkung bzw. Schaden) | 5 (= 80 - 100 % Wirkung bzw. Schaden) |
